{"source": "patent US20070184102A1", "about": "“LATEX OR PSEUDOLATEX COMPOSITIONS, COATINGS AND COATING PROCESSES” (priority 2006, published 2007)", "data": [{"experiment": "not given", "details": "not told, pH 7.4", "values": [{"compound": "Polyvinyl alcohol-polyethylene glycol graft copolymer [Kollicoat® IR]", "Effect on water permeability (diffusion coefficient of water) of Aquacoat ECD-based films": "significantly increased"}]}, {"experiment": "Assessment of cast mixed films (appearance, transparency, inhomogeneities, cracks, brittleness or flexibility)", "format": "physicochemical", "details": "films cast on Teflon, cured 24 hours at 60° C.", "description": "(§1) Aquacoat® ECD was plasticized by stirring with triethyl citrate for 24 hours prior to addition of permeation enhancing agent. The dispersion stability was checked by optical microscopy for aggregation, coagulation or flocculation. Films were cast on Teflon® and cured for 24 hours at 60° C. The cast films were assessed in terms of appearance, transparency, inhomogeneities, or cracks and mechanical properties (semi-quantitative brittleness or flexibility).", "values": [{"compound": "O=P([O-])([O-])O.[Na+].[Na+]", "note": "[Disodium Hydrogen Phosphate]", "Properties of cast mixed films with Aquacoat ECD": "inhomogenous films"}, {"compound": "[Cl-].[Na+]", "note": "[Sodium chloride, Sodium Chloride, reference compound]", "Properties of cast mixed films with Aquacoat ECD": "inhomogenous films, with recrystallisation and cracking"}, {"compound": "OC[C@H]1O[C@@](CO)(O[C@H]2O[C@H](CO)[C@@H](O)[C@H](O)[C@H]2O)[C@@H](O)[C@@H]1O", "note": "[Sucrose]", "Properties of cast mixed films with Aquacoat ECD": "good films"}, {"compound": "OC[C@H]1O[C@@H](O[C@H]2[C@H](O)[C@@H](O)C(O)O[C@@H]2CO)[C@H](O)[C@@H](O)[C@H]1O", "note": "(stereo partly drawn) [lactose, Lactose]", "Properties of cast mixed films with Aquacoat ECD": "good films"}, {"compound": "OC[C@@H](O)[C@@H](O)[C@H](O)[C@H](O)CO", "note": "[mannitol, Mannitol]", "Properties of cast mixed films with Aquacoat ECD": "good films"}, {"compound": "OC[C@@H](O)[C@@H](O)[C@H](O)[C@@H](O)CO", "note": "[sorbitol, Sorbitol]", "Properties of cast mixed films with Aquacoat ECD": "good films"}]}, {"experiment": "not given", "details": "not given", "description": "as §1", "values": [{"compound": "OC[C@H]1O[C@@](CO)(O[C@H]2O[C@H](CO)[C@@H](O)[C@H](O)[C@H]2O)[C@@H](O)[C@@H]1O", "note": "[Sucrose]", "Compatibility with / destabilisation of Aquacoat ECD dispersion": "compatible"}, {"compound": "OC[C@H]1O[C@@H](O[C@H]2[C@H](O)[C@@H](O)C(O)O[C@@H]2CO)[C@H](O)[C@@H](O)[C@H]1O", "note": "(stereo partly drawn) [lactose, Lactose]", "Compatibility with / destabilisation of Aquacoat ECD dispersion": "compatible"}, {"compound": "OC[C@@H](O)[C@@H](O)[C@H](O)[C@H](O)CO", "note": "[mannitol, Mannitol]", "Compatibility with / destabilisation of Aquacoat ECD dispersion": "compatible"}, {"compound": "OC[C@@H](O)[C@@H](O)[C@H](O)[C@@H](O)CO", "note": "[sorbitol, Sorbitol]", "Compatibility with / destabilisation of Aquacoat ECD dispersion": "compatible"}, {"compound": "Hydroxypropylmethylcellulose [reference compound]", "Compatibility with / destabilisation of Aquacoat ECD dispersion": "destabilized"}, {"compound": "Iota carrageenan [Gelcarin® GP379]", "Compatibility with / destabilisation of Aquacoat ECD dispersion": "not destabilized"}, {"compound": "Kappa carrageenan [Gelcarin® GP911]", "Compatibility with / destabilisation of Aquacoat ECD dispersion": "viscous stable dispersions"}, {"compound": "Lambda carrageenan [Viscarin® GP209]", "Compatibility with / destabilisation of Aquacoat ECD dispersion": "viscous stable dispersions", "Stability of the aqueous ethylcellulose coating dispersions in presence of the additive": "stable"}, {"compound": "Microcrystalline cellulose-carrageenan [LustreClear® LC103]", "Compatibility with / destabilisation of Aquacoat ECD dispersion": "very viscous destabilised"}, {"compound": "Polyvinyl acetate [Kollicoat® SR 30 D]", "Compatibility with / destabilisation of Aquacoat ECD dispersion": "compatible"}, {"compound": "Polyvinyl alcohol-polyethylene glycol graft copolymer [Kollicoat® IR]", "Compatibility with / destabilisation of Aquacoat ECD dispersion": "compatible in dispersion", "Stability of the aqueous ethylcellulose coating dispersions in presence of the additive": "did not affect"}, {"compound": "Sodium Carboxymethylcellulose [reference compound]", "Compatibility with / destabilisation of Aquacoat ECD dispersion": "destabilized"}, {"compound": "Starch", "Compatibility with / destabilisation of Aquacoat ECD dispersion": "compatible"}]}, {"experiment": "not given", "details": "10 to 30% w/w with respect to Aquacoat ECD solids; Aquacoat ECD plasticized with 25% w/w triethyl citrate", "description": "as §1", "values": [{"compound": "O=P([O-])([O-])O.[Na+].[Na+]", "note": "[Disodium Hydrogen Phosphate]", "Compatibility with / destabilisation of Aquacoat ECD dispersion": "compatible"}, {"compound": "[Cl-].[Na+]", "note": "[Sodium chloride, Sodium Chloride, reference compound]", "Compatibility with / destabilisation of Aquacoat ECD dispersion": "destabilized"}]}]}
